Our source for the melting point values is a melting point compilation (Tetko et al.; mined from patent text by program, amines drawn as free bases though some values may be those of a salt).

In general, melting point refers to the temperature of the solid-liquid transition.

Molecules are shown by their SMILES.

On to `CC(=O)c1nc(-c2ccncc2)[nH]c1C`, for which the melting point was in the range of 181 to 183 °C.
The compound `COC(=O)C1=C(C)NC(C)=C(C(=O)OCCN2CCN(c3ccccn3)CC2)C1c1cccc([N+](=O)[O-])c1` (centres undefined) yielded a melting point of 53 to 56 °C.
Regarding `CCOC(=O)c1ccc(NCCOc2ccc(Br)cc2)cc1`, the melting point was 128 to 133 °C.
To `CCCCCCCCON=C(C(=O)OCC)c1csc(N)n1` belongs 77 to 78 °C.
Consider `CNC(=O)NC(=O)C(CC1CCC(O)C1)c1ccc(Cl)c(Cl)c1` (centres undefined), for which the melting point was in the range of 82 to 84 °C.
`O=C(NC(=O)c1ccc(F)cc1Cl)Nc1ccc(OC(F)(F)C(F)Cl)c(Cl)c1` (centres undefined) returned a melting point of 186 °C.
`CCOC(=O)C1=C(C)N(C)C(C)=C(C(=O)OC)C1c1ccccc1C#N` (centres undefined) gave a melting point of 175 °C.
Compound `O=[N+]([O-])c1ccc(N=Nc2ccc(N(CC3CO3)CC3CO3)cc2)cc1` (centres undefined) registered a melting point of 135 to 136 °C.
For the compound `C=CCC1=C(Cl)C(=O)c2ccccc2C1=O`, the melting point was in the range of 69 to 70 °C.
The compound `CCOC(=O)/C=C/c1ccc(OCCOC)cc1Oc1ccc([N+](=O)[O-])cc1` had a melting point of 61 to 64 °C.
As for `CCOC(=O)C(CC(C)C)(C(=O)OCC)[C@H](NC(C)=O)[PH](=O)O`, the melting point was 105 to 106 °C.
`Cc1nc(N2C(=O)N(CCc3ccc(F)cc3)CC2O)sc1C(=O)NCc1cccnc1` (centres undefined) registered a melting point of 182 to 184 °C.
`CCOC(=O)c1c(CN2CCOCC2)nc2cc(OC)c(OC)cc2c1-c1ccc(OC)c(OC)c1`: the melting point was 146 to 147 °C.
For the compound `O=C(C1CCCc2c1c1ccccc1n2Cc1ccccc1)N1CCCC1` (centres undefined), the melting point lay within 232 to 234 °C.
Turning to `O=C(O)c1cnccc1CCCOc1cccnc1Oc1cccc(Cl)c1`, the melting point was in the range of 142 to 144 °C.
To `COC(=O)c1ccc(CC(=O)c2ccccc2Cl)cc1` belongs 40 to 42 °C; to `COc1nc(Cl)nc2c1c(C#N)cn2C1OC(CO)C(O)C1O` (centres undefined), 194 to 195 °C.
As to `CC(C(=O)O)c1ccc(N2CC3=C(CC=CC3)C2=O)cc1` (centres undefined), the melting point was 220 to 222 °C.
In the case of `CCc1nn(CO)c(CC)c1Cc1cc(Cl)cc(Cl)c1` it was 117 to 118 °C; in that of `NC(=O)N1CCC(c2nn(-c3ccc(C(F)(F)F)cc3)c3ccc(F)cc23)CC1`, 172 to 174 °C.
Regarding `COc1ccc2[nH]cc(-c3cc4c(-c5c(C)noc5C)ccnc4[nH]3)c2c1`, the melting point was 270 to 271 °C.
Take `COc1cc(-n2nc(C(F)(F)F)cc2-c2ccc(S(C)(=O)=O)cc2)ccc1Br`: the melting point lay in the range of 156 to 157 °C.
Compound `C#CCc1c(C)nc2c(OCc3c(C)cccc3NC(=O)OC)cccn12` gave a melting point of 179 to 180 °C.
Regarding `CCCCOc1ccc(S(N)(=O)=O)cc1`, the melting point fell in the range of 99 to 101 °C.
For the compound `CCOC(=O)C(C(=O)Nc1nccs1)C(=O)c1cccc(C(F)(F)F)c1NC(=O)C(Cl)C(C)C` (centres undefined), the melting point came to 160 °C.
The compound `CCCCCC(=O)NCc1ccco1` had a melting point of 54 to 55 °C.
With `COC1=CC(N)C(C)(Cl)C=C1` (centres undefined), the melting point lay in the range of 83 to 85 °C.
Regarding `COC(=O)Cc1ccc(OCCN)c(OC)c1`, the melting point was in the range of 77 to 80 °C.
In the case of `Cn1cc(Br)c(-c2cccc(NC(=O)Cc3ccc(OC(F)(F)F)cc3)c2)n1`, the melting point lay within 141 to 142 °C.
Compound `CCOC(=O)c1cnoc1-c1ccc(C)cc1` showed a melting point of 42 to 44 °C.
Turning to `CCOC(=O)C(C)(C)CCS(N)(=O)=O`, the melting point was in the range of 93 to 94 °C.
The compound `COc1ccc(COc2ccc(CC(=O)O)cc2Cl)cc1Cl` had a melting point of 150 to 151 °C.
In the case of `CC(=O)NCCC1CCc2c(F)cc3nn(C)cc3c21` (centres undefined) it was 116 to 119 °C; in that of `O=[N+]([O-])c1ccc2c(c1)C(N1CCCC1)C(O)CC2` (centres undefined), 77 °C.
In the case of `CC(=O)c1ccc(N)c(Br)c1` it was 59 to 62 °C; in that of `O=C(/C=C/c1ccccc1Sc1ccc(Cl)cc1)NC1CCC(O)CC1` (centres undefined), 86 to 88 °C; in that of `N#CCCSCc1csc(NC(=N)N)n1`, 127 to 128 °C.
With `COc1c(NC(=O)c2ccc(C)c(-n3cc(C(=O)NCC4CCN(C)CC4)nn3)c2)cc(C(C)(C)C)cc1NS(C)(=O)=O`, the melting point is 202 to 203 °C.
To `CC(=O)Oc1cccc(C(=O)Nc2ccc3ccc(Cl)nc3n2)c1` belongs 207 °C.
In turn, `COC(=O)CC(NC(=O)c1cccc(OC)c1)c1ccc(OC)c(OC)c1` (centres undefined) came in with a melting point of 124 to 125 °C.
Regarding `CC(c1ccc(C(=O)O)cc1)c1cc2cc(C(F)(F)F)ccc2n1S(=O)(=O)c1cccc(C(C)(C)C)c1` (racemic), the melting point turned out to be 212 °C.
As to `COC1=C(OC)C(=O)C(CCCCCCCCCC(=O)O)=C(C)C1=O`, the melting point was 59 to 60 °C.
In turn, `Cc1c(SCCN2CCOCC2)ccnc1CSc1nc2ccccc2[nH]1` displayed a melting point of 201 to 203 °C.
Consider `COc1cc(OC)c2c(=O)[nH]c(-c3cc(C)c(OCCN4CCC4)c(C)c3)nc2c1`, for which the melting point fell in the range of 204 to 205 °C.
The compound `CC(C)(C)c1cc2c(n1-c1ccc(O)c(C(=O)O)c1)CCc1ccccc1-2` displayed a melting point of 258 to 260 °C.
The compound `CCC[C@H]1CC[C@H](c2ccc(CCc3ccc(C#N)cc3)cc2)CC1` registered a melting point of 36 °C.
In the case of `CC(C)(C)OC(=O)N1C(=O)c2ccccc2C1=O` it was 90 to 92 °C; in that of `Cc1ccc2c(c1)CCn1ccnc1C2=C1CCN(CCc2ccc(O)cc2)CC1`, 176 °C.
As to `Nc1ncnc2c1ncn2OCCOCP(=O)(O)O`, the melting point lay within 241 to 244 °C.
Compound `CCNC(=O)NCCc1cccc(-c2nc(=O)c3ccccc3s2)n1` returned a melting point of 240 to 242 °C.
Compound `c1cc(-c2ccc(-n3c4ccccc4c4ccccc43)cc2)cc(-n2c3ccccc3c3ccccc32)c1` came in with a melting point of 244 to 246 °C.
Regarding `CC(C)(C)c1ccc(COc2ccc(CSc3ccc(OCC(=O)O)c4c3CCC4)cc2)cc1`, the melting point was in the range of 152 to 153 °C.
For the compound `CC(C)C1COCc2nc3c(N)nc4ccc(O)cc4c3n21` (centres undefined), the melting point fell in the range of 208 to 210 °C.
Turning to `CO[C@@]1(C)[C@@H](NC(=O)C(F)(F)F)CC(OC(=O)c2ccc([N+](=O)[O-])cc2)O[C@H]1C` (some centres undefined), the melting point lay in the range of 180 to 181 °C.
The compound `O=S(Cc1cccc(O)c1)c1nc2cnccc2[nH]1` (centres undefined) had a melting point of 224 to 227 °C.
`O=C1NCc2c1cc1ccc3c(c1c2-c1ccccc1)OCO3` gave a melting point of 290 to 292 °C.
Regarding `CC(=O)NC[C@H]1CN(c2ccc(I)c(F)c2)C(=O)O1`, the melting point turned out to be 186 °C.
Consider `COC(=O)CCC(=O)c1ccc(OC(=S)N(C)C)cc1`, for which the melting point is 62 to 64 °C.
As to `OC1CSC(Oc2cccc(-c3cncnc3)c2)C(O)C1O` (centres undefined), the melting point stood at 241 °C.
In turn, `COc1ccc(-n2nc(CCCO)cc2-c2ccc(Cl)cc2)cc1` displayed a melting point of 87.5 to 88 °C.
Consider `CCCOc1ccccc1-c1ncc(N)c(=O)[nH]1`, for which the melting point lay within 157 to 158 °C.
In the case of `CC1(C)CC(=O)N(CCOC(OCCN2C(=O)CC(C)(C)CC2=O)(C(=O)c2ccccc2)c2ccccc2)C(=O)C1` it was 130 °C; in that of `N#CC(C#N)=Cc1ccc(O)c(O)c1`, 225 °C.
On to `O=CN(O)C(CS(=O)(=O)c1ccc(-c2ccc(C(F)(F)F)cc2)cc1)c1ccc2c(c1)OCO2` (centres undefined), for which the melting point stood at 160 °C.
Regarding `O=S(=O)(CC(O)(CBr)c1ccccc1)c1ccccc1` (centres undefined), the melting point is 91 °C.
To `N#Cc1cc([N+](=O)[O-])ccc1N1CCC(=O)CC1` belongs 109 °C; to `CC(C)(Oc1ccc(NC(=O)Cc2ccccc2)cc1)C(=O)O`, 173 to 175 °C.
The compound `COc1cc(C(F)(F)F)sc1CN1C(=O)C2(COc3cc4c(cc32)OCO4)c2ccccc21` (centres undefined) returned a melting point of 178 to 180 °C.
`CCOC(=O)C1CNc2cc([N+](=O)[O-])ccc2O1` (centres undefined): the melting point is 88 to 90 °C.
Take `N#Cc1ccc(Cn2cc(C=CC=O)nn2)cc1`: the melting point lay within 152 to 155 °C.
`Cc1c(N2CC(O)C2)c(F)cc2c(=O)c(C(=O)O)cn(C3CC3)c12`: the melting point lay within 260 to 262 °C.
Consider `O=C(O)c1cn(C2CC2)c2nc(N3Cc4ccccc4C3)c(F)cc2c1=O`, for which the melting point is greater than 300 °C.
Compound `Cc1nc(NC(=O)c2cnn3c(C(F)F)cc(-c4ccc(C(F)(F)F)cc4)nc23)sc1S(=O)(=O)NCCO` showed a melting point of 134 °C.
Compound `N#CNc1nc2ccccc2o1` came in with a melting point of 175 °C.
Consider `O=C(O)c1ccc(N(CCCc2ccc(Cl)cc2)CCCc2ccc(Cl)cc2)cc1`, for which the melting point fell in the range of 128 to 131 °C.
For the compound `CC(C)(c1ccc(Oc2cccc(N3C(=O)C=CC3=O)c2)cc1)c1ccc(C(C)(C)c2ccc(Oc3cccc(N4C(=O)C=CC4=O)c3)cc2)cc1`, the melting point was 192 to 193 °C.
`CCC(C)(Oc1ccc(-c2ccccc2)cc1OC)C(=O)O` (centres undefined) came in with a melting point of 50 to 55 °C.
Take `COC(=O)Cn1c(C(=O)NC(N)=S)cc2cc(C)cc(C)c21`: the melting point was in the range of 226 to 231 °C.
In the case of `c1cc2c3c(cccc3c1)NN=N2` it was 80 to 81 °C; in that of `O=C(c1cccs1)c1cccn1N1C(=O)c2ccccc2C1=O`, 165 to 166 °C; in that of `COc1ccc2sc(C(=O)OCc3ccccc3)c(OCc3ccccc3)c2c1`, 66 to 67 °C.
For `O=c1c2cccc(O)c2nc(-c2ccc(OCCCl)cc2)n1-c1ccc(O)cc1`, the melting point lay within 188 to 190 °C.
Compound `COc1ccc(C(=O)N[C@H]2CCN(C)C[C@H]2c2ccc(OC)c(OC)c2)cc1` (relative stereo) displayed a melting point of 223 to 226 °C.
As to `COc1ccc2nccc(CCC[C@@H]3CCN(CCCc4ccccc4F)C[C@@H]3C(=O)O)c2c1`, the melting point was found to be 194 °C.
Regarding `CNC(=O)C(Cc1ccc(OC)cc1)NC(=O)C(CC(C)C)C(S)CC(=O)NCC(=O)O` (centres undefined), the melting point fell in the range of 228 to 231 °C.
As for `CCOC(=O)c1ccc(C=Cc2ccc(OC)cc2)cc1`, the melting point lay within 191 to 192 °C.
To `CCOC(=O)C1=Cc2cc(S(=O)(=O)Cl)ccc2OC1C(F)(F)F` (centres undefined) belongs 97.2 to 98.4 °C; to `NC(=O)CCc1cccc(-c2nc(=O)c3ccccc3s2)n1`, 236 °C.
Compound `CN(C)C=Nc1sc(C=O)c(Br)c1C#N` registered a melting point of 220 °C.
